According to ChEMBL document CHEMBL1129208, “Synthesis and activity of 2,6,9-trisubstituted purines” (Bioorg Med Chem Lett, 1997):
Several values for one entry are separate records, joined by “and”; a condition that tells them apart may be missing. Equal values may be shown once.

Target: Cyclin-dependent kinase 2/cyclin E (Homo sapiens, UniProt P24941)
Assay: Inhibitory concentration against cyclin dependent kinase-2 (CDK2)/Cyclin E
Type: protein-complex assay

Row | IC50 | SMILES
1 | > 5 µM | CN(Cc1ccc(C(=O)O)cc1)c1[nH]c(Cl)nc2ncnc1-2
2 | > 5 µM | COc1ccc(CNc2nc(C3CC[C@@H](Cc4ccccc4N)N3)nc3c2ncn3C(C)C)cc1 (some centres not stated)
3 | 1 µM | CC(C)n1cnc2c(Nc3ccc(Br)cc3)nc(N(CCO)CCO)nc21
4 | 2 µM | COc1ccc(CNc2nc(NCC(O)CO)nc3c2ncn3C(C)C)cc1 (configuration not stated)
5 | > 5 µM | Cn1cnc2c(NCCc3ccccc3)nc(Cl)nc21
6 | > 5 µM | CN(c1ccncc1)c1nc(Cl)nc2c1ncn2C1CCCC1
7 | > 5 µM | CC(C)n1cnc2c(N(C)Cc3ccc(-c4ccccc4)cc3)nc(Cl)nc21
8 | 2 µM | COc1ccc(CNc2nc(N(CCO)CCO)nc3c2ncn3CC(C)C)cc1
9 | 2 µM | COc1ccc(CNc2nc(N(CCO)CCO)nc3c2ncn3Cc2cccc([N+](=O)[O-])c2)cc1
10 | 2 µM | CC(C)n1cnc2c(N(C)C3CC3)nc(N(CCO)CCO)nc21
11 | > 5 µM | COc1ccc(CNc2nc(N3CCC(O)C3)nc3c2ncn3C(C)C)cc1 (configuration not stated)
12 | 0.8 µM | CC(C)n1cnc2c(NCc3ccc4c(c3)OCO4)nc(N(CCO)CCO)nc21
13 | 4 µM and 0.7 µM | COc1ccc(CNc2nc(Cl)nc3c2ncn3C)cc1
14 | 5 µM | COc1ccc(CNc2nc(N(CCO)CCO)nc3c2ncn3Cc2ccc3ccccc3c2)cc1
15 | 5 µM | CC(C)(C)OC(=O)Cn1cnc2c(NCc3ccc(-c4ccccc4)cc3)nc(N(CCO)CCO)nc21
16 | > 5 µM | CC(C)n1cnc2c(NCc3ccc(-c4ccccc4)cc3)nc(NCc3ccco3)nc21
17 | 3 µM | CCCCCCCC/C=C\CCCCCCCCn1cnc2c(NCc3ccc(OC)cc3)nc(N(CCO)CCO)nc21
18 | > 5 µM | COc1ccc(CNc2nc(N(CCO)CCO)nc3c2ncn3Cc2ccccc2-c2ccccc2)cc1
19 | 5 µM | COCCN(CCOC)c1nc(NCc2ccc(-c3ccccc3)cc2)c2ncn(C(C)C)c2n1
20 | 1 µM | COc1ccc(CNc2nc(N(CCO)CCO)nc3c2ncn3CCO)cc1
21 | > 5 µM | CC(C)n1cnc2c(Nc3cccc4cccnc34)nc(N(CCO)CCO)nc21
22 | > 5 µM | COc1ccc(CNc2nc(N(CCO)CCO)nc3c2ncn3CC(O)CO)cc1 (configuration not stated)
23 | > 5 µM | COCCCNc1nc(Cl)nc2c1ncn2C
24 | 1 µM | FC(F)(F)n1cnc2c(NCc3ccc(Cl)cc3)nc(Cl)nc21

Row | IC50 | SMILES
25 | > 5 µM | COc1ccc(CNc2nc(NCCN)nc3c2ncn3C(C)C)cc1
26 | > 5 µM | Cn1cnc2c(NC3CCN(Cc4ccccc4)CC3)nc(Cl)nc21
27 | > 5 µM | O=C1c2ccccc2C(=O)N1CCNc1nc(Cl)nc2nc[nH]c12
28 | > 5 µM | CC(C)n1cnc2c(NCc3ccc(C4=CC(=S)CC=C4)cc3)nc(N(CCO)CCO)nc21
29 | 1 µM | COc1ccc(CNc2nc(N(CCO)Cc3ccccc3)nc3c2ncn3C(C)C)cc1
30 | 5 µM | COc1ccc(CNc2nc(N3CCCC3)nc3c2ncn3C(C)C)cc1
31 | > 5 µM | CC(C)Cn1cnc2c(N(C)c3cccnc3)nc(Cl)nc21
32 | > 5 µM | CC(C)n1cnc2c(NC3Cc4ccccc4C3)nc(N(CCO)CCO)nc21
33 | 2 µM | COc1ccc(CNc2nc(N3CCC(O)CC3)nc3c2ncn3C(C)C)cc1
34 | > 5 µM | COc1ccc(CNc2nc(N(C)CC(O)c3ccccc3)nc3c2ncn3C(C)C)cc1 (configuration not stated)
35 | 1.5 µM | COc1ccc(CNc2nc(NCCO)nc3c2ncn3C(C)C)cc1
36 | > 5 µM | N#CCCCNc1nc(Cl)nc2nc[nH]c12
37 | > 5 µM | CCn1cnc2c(NCCc3ccccc3)nc(Cl)nc21
38 | 2 µM | CCC(C)Cn1cnc2c(NCc3ccc(OC)cc3)nc(N(CCO)CCO)nc21 (configuration not stated)
39 | > 5 µM | Cn1cnc2c(NCCCCCCO)nc(Cl)nc21
40 | > 5 µM | C=CCN(CC=C)c1nc(NCc2ccc(OC)cc2)c2ncn(C(C)C)c2n1
41 | > 5 µM | CCCn1cnc2c(NCCCCCCO)nc(Cl)nc21
42 | > 5 µM | Cn1cnc2c(NC3CCCC3)nc(Cl)nc21
43 | 2 µM | COc1ccc(CNc2nc(N(CCO)CCO)nc3c2ncn3C2CCCC2)cc1
44 | 5 µM | CC(C)n1cnc2c(Nc3ccc(Br)cc3)nc(Nc3ccc(Br)cc3)nc21
45 | > 5 µM | Cn1cnc2c(NCc3cccnc3)nc(Cl)nc21
46 | 1 µM | COc1ccc(CNc2nc(NC3CCCCC3O)nc3c2ncn3C(C)C)cc1 (configuration not stated)
47 | > 5 µM | CC(C)n1cnc2c(Nc3nc4ccccc4s3)nc(Cl)nc21
48 | 3 µM | CC(O)Nc1nc(NCc2ccc(-c3ccccc3)cc2)c2ncn(C(C)C)c2n1 (configuration not stated)

Row | IC50 | SMILES
49 | > 5 µM | ClCCCCNc1[nH]c(Cl)nc2ncnc1-2
50 | 3 µM | COc1ccc(CNc2nc(N(C)CC(O)c3ccc(O)c(O)c3)nc3c2ncn3C(C)C)cc1 (configuration not stated)
51 | > 5 µM | Cn1cnc2c(NCc3ccncc3)nc(Cl)nc21
52 | 0.5 µM | COc1ccc(CNc2nc(NC(C)(O)CO)nc3c2ncn3C(C)C)cc1 (configuration not stated)
53 | 1 µM | CC(C)n1cnc2c(NCc3ccc(-c4ccccc4)cc3)nc(N(CCO)CCO)nc21
54 | 1 µM | COc1ccc(CNc2nc(NC(O)CN)nc3c2ncn3C(C)C)cc1 (configuration not stated)
55 | > 5 µM | CC(C)n1cnc2c(NCCCc3ccccc3)nc(N(CCO)CCO)nc21
56 | 2.5 µM | COc1ccc(CNc2nc(NCCO)nc3c2ncn3C)cc1
57 | > 5 µM | Clc1nc(NCc2ccccc2)c2[nH]cnc2n1
58 | > 5 µM | Cn1cnc2c(NC(C)(C)CO)nc(Cl)nc21
59 | > 5 µM | COc1ccc(CNc2nc(Cl)nc3c2ncn3Cc2ccc(-c3ccccc3)cc2)cc1
60 | 2 µM | COc1ccc(CNc2nc(NCCc3c[nH]c4ccccc34)nc3c2ncn3C(C)C)cc1
61 | > 5 µM | Cn1cnc2c(Nc3nc4ccccc4s3)nc(Cl)nc21
62 | 0.6 µM | CC(C)n1cnc2c(NCc3ccc(-c4cccs4)cc3)nc(N(CCO)CCO)nc21
63 | 2 µM | CC(C)n1cnc2c(Nc3cnc4ccccc4c3)nc(N(CCO)CCO)nc21
64 | > 5 µM | COCCNc1nc(Cl)nc2c1ncn2C
65 | 1 µM | COc1ccc(CNc2nc(N(Cc3cccnc3)CC(C)C#N)nc3c2ncn3C(C)C)cc1 (configuration not stated)
66 | 2 µM | CC(C)n1cnc2c(Nc3ccccc3)nc(N(CCO)CCO)nc21
67 | 2 µM | CCCCc1ccc(CNc2nc(N(CCO)CCO)nc3c2ncn3C(C)C)cc1
68 | 4 µM | COc1ccc(CNc2nc(N3CCCCC3CO)nc3c2ncn3C(C)C)cc1 (configuration not stated)
69 | 0.6 µM | CC(C)n1cnc2c(NCc3ccc(-c4ccccc4)cc3)nc(NCC(O)CO)nc21 (configuration not stated)
70 | 2 µM | CC(C)n1cnc2c(NCc3ccc(Br)cc3)nc(N(CCO)CCO)nc21
71 | 2 µM | COc1ccc(CNc2nc(N(CCO)CCO)nc3c2ncn3Cc2ccc([N+](=O)[O-])cc2)cc1
72 | 0.6 µM | CC(C)n1cnc2c(Nc3ccc(-c4ccccc4)cc3)nc(N(CCO)CCO)nc21
